These results are taken from patent publication US20240325747A1, “COMPOSITIONS AND METHODS OF A CONCOMITANT THERAPY OF ALTERNATING ELECTRIC FIELDS AND N-CADHERIN INHIBITOR” (NOVOCURE GMBH, priority 2023, published 2024).

One experiment has as its system tumor microenvironment. Particulars: systemic ADH-1; cited from earlier work.
Another experiment deals with angiogenesis. Particulars: cited from earlier work.
Experiment [1] concerns A2780 cells. As to the kind of experiment: Calcium switch assay, cell morphology (phase-contrast). As to conditions: A2780, control and TTFields (72 h) conditions, 4 mM EGTA. In kind it is cell-based. The protocol: (§1) FIGS. 10A-10E show N-cadherin engagement functions upstream of AKT activation during long-term TTFields application. (FIG. 10A) H1299 cells were either left untreated or treated with TTFields (150 kHz) for 72 h. Left panel: Confocal fluorescence microscopy images of N-cadherin in control and TTFields-treated cells are shown. Blue, DAPI-stained DNA; Red, F-actin; Green, N-cadherin; Scale bars, 20 μm. Right panel: Quantification of N-cadherin expression, shown as mean±SEM. *p<0.05; unpaired t-test: N≥2. (FIGS. 10B, 10C) A2780 and H1299 cells were treated with TTFields (200 kHz and 150 kHz, respectively) for 72 h and then: left untreated (No EGTA), treated with 4 mM EGTA (EGTA), or treated with 4 mM EGTA subsequently replaced with serum-free calcium-containing medium (EGTA/Ca^+2). (FIG. 10B) Representative phase-contrast images. Scale bars, 100 μm. (FIG. 10C) Upper panels: Samples were immunoblotted for AKT, pAKT (Ser473), and GAPDH. Lower panels: Densitometric analysis (arbitrary units normalized to the expression of the housekeeping protein GAPDH), is shown as mean±SEM. *p<0.05, and *** p<0.001; one-way ANOVA followed by Tukey's post hoc test: N≥2. […]

For experiment [2], the system named is H1299 cells. The description is as above. In kind it is cell-based. Particulars: H1299, control and TTFields (72 h) conditions, 4 mM EGTA. The protocol:
as §1

Experiment [3] deals with A2780 cells. The experiment can be described thus: Calcium switch assay, immunoblot of AKT phosphorylation (Ser473) after TTFields. The format is cell-based. Particulars: A2780, TTFields 200 kHz 72 h then 4 mM EGTA; compared with TTFields-treated cells under normal calcium levels. The protocol:
as §1, with “GAPDH.” for “GAPDH. Lower panels: Densitometric analysis (arbitrary units normalized to the expression of the housekeeping protein GAPDH), is shown as mean±SEM. *p<0.05, and *** p<0.001; one-way ANOVA followed by Tukey's post hoc test: N≥2.”
(§2) NSCLC cells (FIGS. 4—H1299 cells) or ovarian cancer cells (FIGS. 5—A2780 cells) treated with TTFields for 72 hours were incubated with […] EGTA to disrupt cell-cell contacts. […] Relative protein densities of Akt on the Ser-473 ratio were determined. […]
A general note: Immunoblotting shows a protein as a band on a membrane.

Experiment [4] relates to H1299 cells. Described as above. The format is cell-based. Particulars: H1299, TTFields 150 kHz 72 h then 4 mM EGTA; compared with TTFields-treated cells under normal calcium levels. The protocol:
as §1, with “GAPDH.” for “GAPDH. Lower panels: Densitometric analysis (arbitrary units normalized to the expression of the housekeeping protein GAPDH), is shown as mean±SEM. *p<0.05, and *** p<0.001; one-way ANOVA followed by Tukey's post hoc test: N≥2.”
as §2

Turning to “N-Ac-CHAVC-NH2 (also: cyclic, type not given here) [ADH-1, cyclic peptide N-cadherin antagonist (CHAVC]”, the Tumor growth result in the experiment on tumor microenvironment was “modulate tumor growth through activation of the AKT pathway”. Besides, in the experiment with angiogenesis, the Angiogenesis result was “inhibit angiogenesis”.

With `O=C(O)CN(CCOCCOCCN(CC(=O)O)CC(=O)O)CC(=O)O` [EGTA, ethylene glycol-bis (β-aminoethyl ether)-N,N,N′,N′-tetraacetic acid], the Cell morphology entry with A2780 cells [1] and in the experiment on H1299 cells [2] was “rounded morphology” throughout. Moreover, the “AKT phosphorylation (Ser473)” value in the experiment with A2780 cells [3] and in the experiment on H1299 cells [4] was “reduced phosphorylation of AKT” each time.
